Assay results reported in ChEMBL document CHEMBL4840335, “Rational Design and Development of Novel CDK9 Inhibitors for the Treatment of Acute Myeloid Leukemia” (J Med Chem, 2021).
Activity calls are given as the source filed them. The rule behind the calls is not given here.

Tests used:
[1] = target: Cyclin-dependent kinase 2 (Homo sapiens, UniProt P24941); assay: Inhibition of CDK2 (unknown origin)
[2] = target: Cyclin-dependent kinase 4 (Homo sapiens, UniProt P11802); assay: Inhibition of CDK4 (unknown origin)
[3] = target: Cyclin-dependent kinase 7 (Homo sapiens, UniProt P50613); assay: Inhibition of CDK7 (unknown origin)
[4] = target: Hepatocyte growth factor receptor (Homo sapiens, UniProt P08581); assay: Inhibition of Met (unknown origin)
[5] = target: ALK tyrosine kinase receptor (Homo sapiens, UniProt Q9UM73); assay: Inhibition of ALK (unknown origin)
[6] = target: Proto-oncogene tyrosine-protein kinase receptor Ret (Homo sapiens, UniProt P07949); assay: Inhibition of RET (unknown origin)
[7] = target: Fibroblast growth factor receptor 2 (Homo sapiens, UniProt P21802); assay: Inhibition of FGFR2 (unknown origin)
[8] = target: Fibroblast growth factor receptor 3 (Homo sapiens, UniProt P22607); assay: Inhibition of FGFR3 (unknown origin)
Chain of Fibroblast growth factor receptor 3 (P22607 whole entry): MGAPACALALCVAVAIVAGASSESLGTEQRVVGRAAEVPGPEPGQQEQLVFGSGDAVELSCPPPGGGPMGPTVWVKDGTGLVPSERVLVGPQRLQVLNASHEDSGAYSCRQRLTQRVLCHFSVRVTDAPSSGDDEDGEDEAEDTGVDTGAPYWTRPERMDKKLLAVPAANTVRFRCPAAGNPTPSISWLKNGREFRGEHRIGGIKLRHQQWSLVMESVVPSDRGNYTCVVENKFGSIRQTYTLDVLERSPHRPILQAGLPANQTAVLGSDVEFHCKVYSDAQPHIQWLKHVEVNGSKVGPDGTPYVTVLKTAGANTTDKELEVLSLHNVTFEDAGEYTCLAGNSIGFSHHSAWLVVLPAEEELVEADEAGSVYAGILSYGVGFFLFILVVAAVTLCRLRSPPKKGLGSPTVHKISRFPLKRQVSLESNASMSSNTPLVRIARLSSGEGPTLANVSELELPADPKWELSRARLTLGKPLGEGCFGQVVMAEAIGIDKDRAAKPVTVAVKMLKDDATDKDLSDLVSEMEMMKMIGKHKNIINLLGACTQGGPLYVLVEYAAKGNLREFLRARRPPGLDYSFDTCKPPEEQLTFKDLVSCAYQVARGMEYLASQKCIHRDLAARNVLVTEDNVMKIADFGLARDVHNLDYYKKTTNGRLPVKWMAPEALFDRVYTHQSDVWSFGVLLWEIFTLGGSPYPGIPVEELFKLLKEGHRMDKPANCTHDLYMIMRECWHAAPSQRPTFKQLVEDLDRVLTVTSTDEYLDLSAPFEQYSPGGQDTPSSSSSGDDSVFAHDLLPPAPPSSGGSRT

[9] = target: Fibroblast growth factor receptor 4 (Homo sapiens, UniProt P22455); assay: Inhibition of FGFR4 (unknown origin)
[10] = target: Platelet-derived growth factor receptor beta (Homo sapiens, UniProt P09619); assay: Inhibition of PDGFRB (unknown origin)
Chain of Platelet-derived growth factor receptor beta (P09619 whole entry): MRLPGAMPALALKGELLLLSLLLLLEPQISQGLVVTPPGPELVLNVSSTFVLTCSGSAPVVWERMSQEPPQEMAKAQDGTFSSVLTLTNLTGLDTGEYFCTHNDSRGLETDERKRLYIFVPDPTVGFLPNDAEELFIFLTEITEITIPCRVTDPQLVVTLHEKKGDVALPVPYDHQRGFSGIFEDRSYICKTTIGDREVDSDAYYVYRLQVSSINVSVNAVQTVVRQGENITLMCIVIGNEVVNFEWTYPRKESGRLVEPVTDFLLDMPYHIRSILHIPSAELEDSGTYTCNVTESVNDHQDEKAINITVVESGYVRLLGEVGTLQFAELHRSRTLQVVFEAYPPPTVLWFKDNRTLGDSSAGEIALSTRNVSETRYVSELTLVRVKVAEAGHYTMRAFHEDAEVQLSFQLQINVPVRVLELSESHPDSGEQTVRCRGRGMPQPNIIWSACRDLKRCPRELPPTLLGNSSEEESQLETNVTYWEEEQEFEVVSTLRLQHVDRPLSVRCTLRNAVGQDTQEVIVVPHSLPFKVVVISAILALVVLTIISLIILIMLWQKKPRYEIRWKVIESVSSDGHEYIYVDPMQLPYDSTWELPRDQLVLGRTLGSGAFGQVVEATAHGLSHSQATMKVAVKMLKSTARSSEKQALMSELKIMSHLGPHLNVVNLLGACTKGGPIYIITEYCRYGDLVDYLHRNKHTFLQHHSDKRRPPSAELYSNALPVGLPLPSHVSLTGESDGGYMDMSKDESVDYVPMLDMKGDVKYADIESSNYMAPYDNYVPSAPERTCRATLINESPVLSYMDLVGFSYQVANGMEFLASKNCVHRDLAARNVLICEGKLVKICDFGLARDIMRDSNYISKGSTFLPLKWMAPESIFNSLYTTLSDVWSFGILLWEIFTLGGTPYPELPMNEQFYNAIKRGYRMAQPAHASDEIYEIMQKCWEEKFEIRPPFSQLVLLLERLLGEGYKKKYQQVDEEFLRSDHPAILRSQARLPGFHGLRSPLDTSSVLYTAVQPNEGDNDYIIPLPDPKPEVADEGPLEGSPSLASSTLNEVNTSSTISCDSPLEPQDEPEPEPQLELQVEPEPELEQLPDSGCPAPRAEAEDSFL

[11] = target: Epidermal growth factor receptor (Homo sapiens, UniProt P00533); assay: Inhibition of EGFR (unknown origin)
[12] = target: Receptor tyrosine-protein kinase erbB-2 (Homo sapiens, UniProt P04626); assay: Inhibition of ErbB2 (unknown origin)
[13] = target: Receptor tyrosine-protein kinase erbB-4 (Homo sapiens, UniProt Q15303); assay: Inhibition of ErbB4 (unknown origin)
Chain of Receptor tyrosine-protein kinase erbB-4 (Q15303 whole entry): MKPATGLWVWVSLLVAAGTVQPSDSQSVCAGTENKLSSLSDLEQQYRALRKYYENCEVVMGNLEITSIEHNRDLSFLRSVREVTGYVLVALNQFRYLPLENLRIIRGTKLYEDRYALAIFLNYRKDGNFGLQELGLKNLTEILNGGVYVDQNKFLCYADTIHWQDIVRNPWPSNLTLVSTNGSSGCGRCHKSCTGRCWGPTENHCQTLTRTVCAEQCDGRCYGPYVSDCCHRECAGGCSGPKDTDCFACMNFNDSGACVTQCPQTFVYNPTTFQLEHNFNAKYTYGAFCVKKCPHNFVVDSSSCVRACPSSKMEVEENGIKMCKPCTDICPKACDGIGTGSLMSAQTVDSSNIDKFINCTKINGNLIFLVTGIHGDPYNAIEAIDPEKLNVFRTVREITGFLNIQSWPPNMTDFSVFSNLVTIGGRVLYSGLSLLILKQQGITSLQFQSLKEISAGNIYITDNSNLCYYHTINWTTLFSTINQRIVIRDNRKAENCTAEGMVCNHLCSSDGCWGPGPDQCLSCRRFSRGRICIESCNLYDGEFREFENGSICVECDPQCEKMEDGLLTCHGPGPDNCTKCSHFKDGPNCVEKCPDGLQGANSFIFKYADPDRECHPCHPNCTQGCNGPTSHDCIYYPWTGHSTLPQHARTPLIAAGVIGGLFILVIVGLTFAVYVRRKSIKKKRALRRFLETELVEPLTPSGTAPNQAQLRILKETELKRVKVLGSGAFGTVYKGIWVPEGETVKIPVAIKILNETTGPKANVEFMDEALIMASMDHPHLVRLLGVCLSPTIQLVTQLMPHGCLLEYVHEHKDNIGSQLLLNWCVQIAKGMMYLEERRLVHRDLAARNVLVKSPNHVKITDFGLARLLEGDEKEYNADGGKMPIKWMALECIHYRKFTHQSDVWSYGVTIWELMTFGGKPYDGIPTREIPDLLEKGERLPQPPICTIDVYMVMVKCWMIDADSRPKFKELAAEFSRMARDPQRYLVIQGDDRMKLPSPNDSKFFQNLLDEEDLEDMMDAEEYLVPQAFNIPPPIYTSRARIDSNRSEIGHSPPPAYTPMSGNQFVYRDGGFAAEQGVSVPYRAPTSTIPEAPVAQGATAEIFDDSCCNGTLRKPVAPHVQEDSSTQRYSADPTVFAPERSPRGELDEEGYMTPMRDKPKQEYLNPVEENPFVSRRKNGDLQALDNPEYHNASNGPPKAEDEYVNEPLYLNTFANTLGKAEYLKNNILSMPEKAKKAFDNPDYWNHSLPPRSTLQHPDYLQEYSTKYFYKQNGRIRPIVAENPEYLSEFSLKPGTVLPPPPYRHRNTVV

[14] = target: Tyrosine-protein kinase ABL1 (Homo sapiens, UniProt P00519); assay: Inhibition of ABL (unknown origin)
[15] = target: Ephrin type-A receptor 2 (Homo sapiens, UniProt P29317); assay: Inhibition of EPHA2 (unknown origin)
[16] = target: Insulin receptor (Homo sapiens, UniProt P06213); assay: Inhibition of IR (unknown origin)
Chain of Insulin receptor (P06213 28-758 limits assumed): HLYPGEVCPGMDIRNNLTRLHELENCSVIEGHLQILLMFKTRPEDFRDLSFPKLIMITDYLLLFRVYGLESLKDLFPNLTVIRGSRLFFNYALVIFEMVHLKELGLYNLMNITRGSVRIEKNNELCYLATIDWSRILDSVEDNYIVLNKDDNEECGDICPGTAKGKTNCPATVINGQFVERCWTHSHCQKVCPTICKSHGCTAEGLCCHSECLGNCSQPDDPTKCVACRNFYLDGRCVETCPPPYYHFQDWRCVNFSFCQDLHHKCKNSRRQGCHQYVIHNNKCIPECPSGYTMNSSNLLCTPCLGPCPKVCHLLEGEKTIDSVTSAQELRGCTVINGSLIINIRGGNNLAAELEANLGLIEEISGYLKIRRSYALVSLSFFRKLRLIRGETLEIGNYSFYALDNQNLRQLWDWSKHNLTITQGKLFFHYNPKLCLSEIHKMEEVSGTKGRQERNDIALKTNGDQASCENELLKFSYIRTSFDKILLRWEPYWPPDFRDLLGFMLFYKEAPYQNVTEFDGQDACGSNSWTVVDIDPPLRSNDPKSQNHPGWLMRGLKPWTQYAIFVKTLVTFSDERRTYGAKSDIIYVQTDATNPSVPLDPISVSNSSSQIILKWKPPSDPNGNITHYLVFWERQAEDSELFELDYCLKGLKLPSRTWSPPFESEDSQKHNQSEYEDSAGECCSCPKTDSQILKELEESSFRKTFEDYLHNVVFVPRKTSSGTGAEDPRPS
Chain of Insulin receptor (P06213 763-1382 limits assumed): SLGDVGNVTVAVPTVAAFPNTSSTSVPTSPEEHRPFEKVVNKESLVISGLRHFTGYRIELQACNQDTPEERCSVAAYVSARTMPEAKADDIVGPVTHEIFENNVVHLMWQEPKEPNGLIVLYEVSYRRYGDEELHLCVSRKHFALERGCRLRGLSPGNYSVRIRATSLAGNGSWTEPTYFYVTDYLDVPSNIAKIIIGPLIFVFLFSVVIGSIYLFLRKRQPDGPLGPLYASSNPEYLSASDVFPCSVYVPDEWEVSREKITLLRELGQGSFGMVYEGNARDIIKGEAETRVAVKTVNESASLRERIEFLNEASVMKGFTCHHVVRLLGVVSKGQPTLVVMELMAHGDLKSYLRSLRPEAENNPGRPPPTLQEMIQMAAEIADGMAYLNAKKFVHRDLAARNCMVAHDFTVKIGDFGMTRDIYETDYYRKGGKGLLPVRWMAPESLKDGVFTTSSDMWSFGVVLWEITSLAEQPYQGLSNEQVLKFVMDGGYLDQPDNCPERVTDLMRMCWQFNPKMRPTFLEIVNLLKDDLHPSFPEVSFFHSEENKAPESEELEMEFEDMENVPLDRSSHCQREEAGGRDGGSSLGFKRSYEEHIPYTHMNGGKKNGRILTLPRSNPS

[17] = target: Vascular endothelial growth factor receptor 2 (Homo sapiens, UniProt P35968); assay: Inhibition of KDR (unknown origin)
[18] = target: Tyrosine-protein kinase BTK (Homo sapiens, UniProt Q06187); assay: Inhibition of BTK (unknown origin)
[19] = target: Serine/threonine-protein kinase Chk2 (Homo sapiens, UniProt O96017); assay: Inhibition of CHK2 (unknown origin)
[20] = target: Wee1-like protein kinase (Homo sapiens, UniProt P30291); assay: Inhibition of WEE1 (unknown origin)
[21] = target: Serine/threonine-protein kinase PAK 1 (Homo sapiens, UniProt Q13153); assay: Inhibition of PAK1 (unknown origin)
[22] = target: Aurora kinase A (Homo sapiens, UniProt O14965); assay: Inhibition of AURKA (unknown origin)
[23] = Antiproliferative activity against human MINO cells assessed as reduction in cell proliferation measured after 3 to 7 days by MTS assay; format: functional, cell-based
[24] = tested on: Z-138; assay: Antiproliferative activity against human Z138 cells assessed as reduction in cell proliferation measured after 3 to 7 days by MTS assay; format: functional, cell-based
[25] = tested on: JeKo-1; assay: Antiproliferative activity against human JeKo-1 cells assessed as reduction in cell proliferation measured after 3 to 7 days by MTS assay; format: functional, cell-based
[26] = tested on: TMD8; assay: Antiproliferative activity against human TMD8 cells assessed as reduction in cell proliferation measured after 3 to 7 days by MTS assay; format: functional, cell-based
[27] = tested on: MM1.S; assay: Antiproliferative activity against human MM1.S cells assessed as reduction in cell proliferation measured after 3 to 7 days by MTS assay; format: functional, cell-based
[28] = tested on: RPMI-8226; assay: Antiproliferative activity against human RPMI-8226 cells assessed as reduction in cell proliferation measured after 3 to 7 days by MTS assay; format: functional, cell-based
[29] = tested on: HL-60; assay: Antiproliferative activity against human HL-60 cells assessed as reduction in cell proliferation measured after 3 to 7 days by MTS assay; format: functional, cell-based
[30] = tested on: MV4-11; assay: Antiproliferative activity against human MV4-11 cells assessed as reduction in cell proliferation measured after 3 to 7 days by MTS assay; format: functional, cell-based
[31] = target: Cyclin-dependent kinase 9 (Homo sapiens) (UniProt P50750); assay: Inhibition of CDK9 in human MV4-11 cells assessed as reduction in RNAP2 phosphorylation at ser5 residues at 1 to 10 uM after 12 hrs by Western blot analysis; format: cell-based; conditions: dose 1-10 µM
Chain of Cyclin-dependent kinase 9 (Homo sapiens) (P50750 whole entry): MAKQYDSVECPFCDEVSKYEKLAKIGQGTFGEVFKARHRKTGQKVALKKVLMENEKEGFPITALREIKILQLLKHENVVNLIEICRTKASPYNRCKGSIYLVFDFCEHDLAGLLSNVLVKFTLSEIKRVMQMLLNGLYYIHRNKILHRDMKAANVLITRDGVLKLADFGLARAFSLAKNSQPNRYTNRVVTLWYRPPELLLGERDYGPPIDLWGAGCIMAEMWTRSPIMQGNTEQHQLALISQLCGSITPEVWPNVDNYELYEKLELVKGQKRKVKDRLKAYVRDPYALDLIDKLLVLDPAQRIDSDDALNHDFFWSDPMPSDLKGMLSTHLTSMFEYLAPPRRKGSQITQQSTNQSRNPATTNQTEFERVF

[32] = tested on: MV4-11; assay: Induction of apoptosis in human MV4-11 cells assessed as late apoptotic cells at 10 nM measured after 24 hrs by annexinV-FITC/propidium iodide staining based flow cytometry (reference value: 3.04 %); format: functional
[33] = tested on: MV4-11; assay: Induction of apoptosis in human MV4-11 cells assessed as early apoptotic cells at 50 nM measured after 24 hrs by annexinV-FITC/propidium iodide staining based flow cytometry (reference value: 0.79 %); format: functional
[34] = tested on: MV4-11; assay: Induction of apoptosis in human MV4-11 cells assessed as late apoptotic cells at 50 nM measured after 24 hrs by annexinV-FITC/propidium iodide staining based flow cytometry (reference value: 3.04 %); format: functional
[35] = AUClast in ICR mouse at 20 mg/kg, po measured up to 24 hrs; format: ADME, organism-based; set-up: route oral, dose 20 mg/kg, time <=24; conditions: in vivo
[36] = Observed AUC infinity in ICR mouse at 20 mg/kg, po measured up to 24 hrs; format: ADME, organism-based; set-up: route oral, dose 20 mg/kg, time <=24; conditions: in vivo
[37] = Half life in ICR mouse at 20 mg/kg, po measured up to 24 hrs; format: ADME, organism-based; conditions: in vivo
[38] = Observed AUC infinity in ICR mouse at 2 mg/kg, iv measured up to 24 hrs; format: ADME, organism-based; set-up: route intravenous, dose 2 mg/kg, time <=24; conditions: in vivo
[39] = Half life in ICR mouse at 2 mg/kg, iv measured up to 24 hrs; format: ADME, organism-based; conditions: in vivo
[40] = tested on: MV4-11; assay: Antitumor activity against human MV4-11 cells xenografted in Nu/Nu mouse assessed as tumor growth suppression by measuring T/C ratio at 7.5 mg/kg, po administered for 21 consecutive days by digital caliper method relative to control; format: functional; conditions: time 21 day
[41] = Toxicity in Nu/Nu mouse xenografted with human MV4-11 cells assessed as body weight loss at 7.5 mg/kg, po administered for 21 consecutive days relative to control; format: organism-based; conditions: in vivo, 504 h, time 21 day
[42] = tested on: MV4-11; assay: Antitumor activity against human MV4-11 cells xenografted in Nu/Nu mouse assessed as change in tumor volume at 7.5 mg/kg, po administered for 21 consecutive days by digital caliper method and measured on day 22 (reference value: 127 +/- 16 mm3); format: functional; conditions: time 22 day
[43] = tested on: MV4-11; assay: Antitumor activity against human MV4-11 cells xenografted in Nu/Nu mouse assessed as relative tumor volume at 7.5 mg/kg, po administered for 21 consecutive days by digital caliper method; format: functional; conditions: time 22 day
[44] = Toxicity in Nu/Nu mouse xenografted with human MV4-11 cells assessed as change in body weight at 7.5 mg/kg, po administered for 21 consecutive days and measured on day 22 (reference value: 23.9 +/- 0.7 g); format: organism-based; conditions: in vivo, 528 h, time 22 day

## Cc1n[nH]c2ccc(-c3cc(N[C@@H](CO)c4ccccc4)cnc3Cl)cc12
[1]
  IC50: 164 nM
[2]
  IC50: > 1000 nM
[3]
  IC50: > 1000 nM
[4]
  IC50: > 1000 nM
[5]
  IC50: > 1000 nM
[6]
  IC50: > 1000 nM
[7]
  IC50: > 1000 nM
[8]
  IC50: > 1000 nM
[9]
  IC50: > 1000 nM
[10]
  IC50: > 1000 nM
[11]
  IC50: > 1000 nM
[12]
  IC50: > 1000 nM
[13]
  IC50: > 1000 nM
[14]
  IC50: > 1000 nM
[15]
  IC50: > 1000 nM
[16]
  IC50: > 1000 nM
[17]
  IC50: > 1000 nM
[18]
  IC50: > 1000 nM
[19]
  IC50: > 1000 nM
[20]
  IC50: > 1000 nM
[21]
  IC50: > 1000 nM
[22]
  IC50: > 1000 nM
[23]
  IC50: 8.4 nM
[24]
  IC50: 46 nM
[25]
  IC50: 46 nM
[26]
  IC50: 46 nM
[27]
  IC50: 13 nM
[28]
  IC50: 5.4 nM
[29]
  IC50: 44 nM
[30]
  IC50: 1.6 nM
[31]
  inhibition: inactive
[32]
  Activity: 2.95%
[33]
  Activity: 3.23%
[34]
  Activity: 16.89%
[35]
  AUC(0-t) at 24 h: 1760 ng·h/mL
[36]
  AUC(0-inf): 1880 ng·h/mL
[37]
  half-life: 8.02 h
[38]
  AUC(0-inf): 558 ng·h/mL
[39]
  half-life: 1.81 h
[40]
  T/C: 27.8%
[41]
  Activity: < 10%
[42]
  Activity: 371 mm3
[43]
  Activity: 2.86
[44]
  Activity: 22.1 g
